Source: PubChem BioAssay AID1259407 (Chemical Carcinogenesis Research Information System (CCRIS), 2018)
Calls of active or inactive are those of the source. How the calls were made is not given here.

System: CCRIS mutagenicity, Ames/micronucleus/aberration tests
Test: CCRIS mutagenicity studies

Measured: mutagenic call

Nc1ccc2c(c1)CN1C(=O)c3ccccc3C1=N2
active: Test System: AMES SALMONELLA TYPHIMURIUM, Strain/Indicator: DJ400, Metabolic Activation: RAT, LIVER, S-9, AROCLOR 1254, Method: PREINCUBATION active; positive | Test System: AMES SALMONELLA TYPHIMURIUM, Strain/Indicator: DJ460, Metabolic Activation: RAT, LIVER, S-9, AROCLOR 1254, Method: PREINCUBATION active; positive | Test System: AMES SALMONELLA TYPHIMURIUM, Strain/Indicator: TA98(1,8-DNP6), Metabolic Activation: RAT, LIVER, S-9, AROCLOR 1254, Method: PREINCUBATION active; positive | Test System: AMES SALMONELLA TYPHIMURIUM, Strain/Indicator: TA98, Metabolic Activation: NONE, Method: PREINCUBATION active; positive | Test System: AMES SALMONELLA TYPHIMURIUM, Strain/Indicator: TA98, Metabolic Activation: RAT, LIVER, S-9, AROCLOR 1254, Method: PREINCUBATION active; positive | Test System: AMES SALMONELLA TYPHIMURIUM, Strain/Indicator: TA100, Metabolic Activation: NONE, Method: PREINCUBATION active; positive | Test System: AMES SALMONELLA TYPHIMURIUM, Strain/Indicator: TA100, Metabolic Activation: RAT, LIVER, S-9, AROCLOR 1254, Method: PREINCUBATION active; positive | Test System: AMES SALMONELLA TYPHIMURIUM, Strain/Indicator: TA102, Metabolic Activation: NONE, Method: PREINCUBATION active; positive | Test System: AMES SALMONELLA TYPHIMURIUM, Strain/Indicator: TA102, Metabolic Activation: RAT, LIVER, S-9, AROCLOR 1254, Method: PREINCUBATION active; positive | Test System: AMES SALMONELLA TYPHIMURIUM, Strain/Indicator: TA1538(1,8-DNP6), Metabolic Activation: RAT, LIVER, S-9, AROCLOR 1254, Method: PREINCUBATION active; positive | Test System: AMES SALMONELLA TYPHIMURIUM, Strain/Indicator: TA1538, Metabolic Activation: RAT, LIVER, S-9, AROCLOR 1254, Method: PREINCUBATION active; positive | Test System: AMES SALMONELLA TYPHIMURIUM, Strain/Indicator: YG1012, Metabolic Activation: RAT, LIVER, S-9, AROCLOR 1254, Method: PREINCUBATION active; positive | Test System: AMES SALMONELLA TYPHIMURIUM, Strain/Indicator: YG1024, Metabolic Activation: RAT, LIVER, S-9, AROCLOR 1254, Method: PREINCUBATION active; positive | Test System: UDS MOUSE HEPATOCYTES, Strain/Indicator: THY INCORP, Metabolic Activation: NONE, Method: AUTORADIOGRAPHY active; positive | Test System: UDS RAT HEPATOCYTES, Strain/Indicator: THY INCORP, Metabolic Activation: NONE, Method: AUTORADIOGRAPHY active; positive
